Holding throughout (format): cell-based
The test system of experiment [1] is LNCap (PSMA+) cells. Briefly: Pro-inflammatory cytokine (IFN-gamma) production assay, PSMA-expressing target cells (LNCap), MSD ELISA. Particulars: Homo sapiens, EC50 in molar (M). As to the method:
(§1) Example 4: Immune Effector Cell (i.e., Anti-Cotinine CAR-T Cell, Anti-Cotinine CAR-NK92 Cell) Functional Study: Pro-Inflammatory Cytokine (e.g., IFN-Gamma) Production Assay
(§2) An ELISA assay was performed to quantify the level of IFN-gamma production by anti-cotinine CAR-T cells in the presence of CyTaC using a Meso Scale Discovery (MSD) T-Plex Multispot Cytokine Assay System. To perform the ELISA assay, each sample was obtained from the co-incubation of anti-cotinine immune effector cells (i.e. CAR-T, CAR-NK92), antigen-expressing target cells, and respective antigen-targeting CyTaCs. CAR-T and CAR-NK cells were prepared as described above in Examples 2 and 3, respectively.
Antigen-expressing target cells were pre-seeded at a density 1.5×10^4 cells per 100 μL of media in each well of a 96-well plate and grown overnight. For functional confirmation of immune effector cell (i.e. anti-cotinine CAR-T cells, anti-cotinine CAR-NK92 cells) activation, 100 nM or 10 nM of CyTaC was introduced into each well where the target cells were seeded to activate the anti-cotinine immune effector cell. For dose response determinations, 10 μM to 0.01 nM of CyTaC was added to the wells. The anti-cotinine immune effector cells (i.e. CAR-T, CAR-NK92) were next added to the wells at a fixed ratio (between 1:1 and 10:1) of effector cells to antigen-expressing After co-incubation, the supernatants were removed from the wells and analyzed to determine IFNγ release using a pro-inflammatory cytokine production assay (Meso Scale Diagnostics V-PLEX Human IFNγ Kit) according to manufacturer's protocol.
For dose response determinations, EC50 calculations were done using Graphpad Prism Software, specifically a nonlinear regression curve fit (Y=Bottom+(Top−Bottom)/(1+10^((Log EC50−X)*HillSlope))).
(§3) CyTaC compounds of Formula (I) were tested for anti-cotinine immune cell (i.e. CAR-T, CAR-NK92) activation as measured by IFN-Gamma production in the above assay in one or more experimental runs and the results are shown in Table 5. Potency of the compounds of Formula (I) is reported as a pEC50 value. The pEC50 value is the negative log of the EC50 value, wherein the EC50 value is half maximal effective concentration measured in molar (M). For compounds tested in more than one experimental run, the pEC50 value is reported as an average.

Experiment [2] has as its system PSMA-expressing target cells. Briefly: In vitro cell killing, Method 1: CellTiter-Glo luminescent cell viability assay, PSMA-expressing target cells. To be noted: 24 hours, EC50 in molar (M). Here is the method:
(§4) In vitro cell killing of antigen expressing target cells in the presence of anti-cotinine CAR-T or CAR-NK cells and antigen matched CyTaCs was evaluated by three different methods: Cell Titler Glo assay (method 1); Real-Time Cell Analysis (RTCA) Impedance Assay (method 2); and live cell analysis assay (method 3), as described below.
(§5) A luminescent assay was performed to quantify the number of viable cells remaining following co-incubation of antigen-expressing adherent target cells, anti-cotinine CAR-T cells, and antigen matched CyTaCs using a CellTiter-Glo Luminescent Cell Viability Assay (Promega). […] After co-incubation, the supernatants were removed from the wells, the residual adherent target cells in the wells were then analyzed for cell viability using CellTiter-Glo® Luminescent Cell Viability Assay (Promega) according to manufacturer's instructions, as described below in Example 5.
(§6) CyTaC compounds of Formula (I) were evaluated for anti-cotinine immune cell mediated cell cytotoxicity in the above assay in one or more experimental runs and the results are shown in Table 6 below and FIGS. 2A, 2B, and 2C. […] The pEC50 value is the negative log of the EC50 value, wherein the EC50 value is half maximal effective concentration measured in molar (M). […]

For experiment [3], the system named is LNCap (PSMA+) cells. Briefly: In vitro cell killing, Method 3: Live-Cell Analysis assay (Incucyte), PSMA-expressing target cells (LNCap). Particulars: Homo sapiens, 24 hour timepoint, 5:1 effector cells to target cells, EC50 in molar (M), read-out: Incucyte ® pEC50, LNCap (converted). As to the method:
as §4
Method 3: Live-Cell Analysis Assay (Incucyte®)
A Live-Cell Analysis assay (Incucyte®) was performed to assess in vitro cell killing of fluorescently-labelled antigen-expressing adherent target cells co-incubated with anti-cotinine immune effector cells (i.e. CAR-T cells, CAR-NK92 cells) and antigen matched CyTaCs. To perform the live-cell analysis assay, fluorescently-labelled antigen-expressing target cells were seeded at a density of 1.0×10^4 to 3×10^4 cells per 100 μL of media, and grown overnight in a 37° C. incubator. The next day, 50 μL of antigen-matched CyTaC solution was added at a concentration to result in 10 μM to 0.01 nM final assay concentration, followed by the addition of 50 μL anti-cotinine immune effector cells (i.e. CAR-T cells, CAR-NK92 cells) at a ratio of 5:1 effector cells to antigen-presenting target cells. The samples were placed in Live-Cell Analysis (Incucyte®) instrument, and the fluorescence of the wells was recorded every 2 hours for an additional 24 to 48 hours.
as §3, with “were evaluated” for “were tested”, “CAR-NK92) mediated cell cytotoxicity” for “CAR-NK92) activation”, “by fluorescence of viable cells” for “by IFN-Gamma production”, “Table 7 and FIG. 4.” for “Table 5.”, “pEC50 value at the 24 hour timepoint.” for “pEC50 value.”

Experiment [4] deals with αVβ6-expressing target cells. In words: Pro-inflammatory cytokine (IFN-gamma) production assay, αVβ6-expressing target cells. To be noted: EC50 in molar (M). Here is the method: as §1, §2
(§7) Antigen-expressing target cells were pre-seeded at a density 1.5×10^4 cells per 100 μL of media in each well of a 96-well plate and grown overnight. […] The anti-cotinine immune effector cells (i.e. CAR-T, CAR-NK92) were next added to the wells at a fixed ratio (between 1:1 and 10:1) of effector cells to antigen-expressing After co-incubation, the supernatants were removed from the wells and analyzed to determine IFNγ release using a pro-inflammatory cytokine production assay (Meso Scale Diagnostics V-PLEX Human IFNγ Kit) according to manufacturer's protocol. […]

Experiment [5] relates to αVβ6-expressing target cells. Briefly: In vitro cell killing, Method 1: CellTiter-Glo luminescent cell viability assay, αVβ6-expressing target cells. To be noted: anti-cotinine CAR-T, 24 hours, EC50 in molar (M), read-out: Cell Titler Glo pEC50 (CAR-T) (converted). As to the method:
as §4, §5, §6
(ATP-based viability assays read luminescence as a measure of living cells.)

Experiment [6] has as its system FOLR-expressing target cells. Briefly: Pro-inflammatory cytokine (IFN-gamma) production assay, FOLR-expressing target cells. To be noted: EC50 in molar (M). Here is the method:
as §1, §2, §7

Experiment [7] concerns FOLR-expressing target cells. In words: In vitro cell killing, Method 1: CellTiter-Glo luminescent cell viability assay, FOLR-expressing target cells. To be noted: 24 hours, EC50 in molar (M). As to the method:
as §4, §5, §6

In experiment [8] the test system is FAP-expressing target cells. In words: Pro-inflammatory cytokine (IFN-gamma) production assay, FAP-expressing target cells. To be noted: EC50 in molar (M). As to the method:
as §1, §2, §7

Experiment [9] concerns FAP-expressing target cells. In words: In vitro cell killing, Method 1: CellTiter-Glo luminescent cell viability assay, FAP-expressing target cells. To be noted: 24 hours, EC50 in molar (M). As to the method: as §4, §5, §6
[10] abbreviates: CAR-T cell activation, PSMA-targeting CyTaCs, read-out: IFNγ Production pEC50, LNCap (converted).
Where [11] appears, read: anti-cotinine CAR-NK, read-out: Cell Titler Glo pEC50 (CAR-NK) (converted).
The mark [12] stands for this setting: anti-cotinine CAR-T, read-out: Cell Titler Glo pEC50 (CAR-T) (converted).
Setting [13] is: anti-cotinine CAR-NK, read-out: IFNγ Production pEC50 (CAR-NK) (converted).
Where [14] appears, read: anti-cotinine CAR-T, read-out: IFNγ Production pEC50 (CAR-T) (converted).

Molecules are shown by their SMILES. Like-named read-outs stand apart in the source and are kept apart here.

Turning to `CN1C(=O)C[C@H](C(=O)NCCO[C@H]2CC[C@H](OCCCC(=O)N[C@H]3CC[C@H](C(=O)N[C@@H](Cc4ccc5ccccc5c4)C(=O)NCCCC[C@H](NC(=O)N[C@@H](CCC(=O)O)C(=O)O)C(=O)O)CC3)CC2)[C@H]1c1cccnc1` [compound 1], the EC50 in [1] (setting [10]) is 1.58e-10 M; in [1] (anti-cotinine CAR-NK, PSMA-expressing target cells, read-out: IFNγ Production pEC50 (CAR-NK) (converted)) it was 1.58e-11 M; in experiment [1] (anti-cotinine CAR-T, PSMA-expressing target cells, read-out: IFNγ Production pEC50 (CAR-T) (converted)), 1.58e-10 M; in [2] (setting [11]), 3.98e-11 M; in experiment [2] (setting [12]) it was 1.58e-10 M; in experiment [3] it was 2.51e-10 M.
Consider `CN1C(=O)C[C@H](C(=O)NCCO[C@H]2CC[C@H](OCCCC(=O)N[C@H]3CC[C@H](C(=O)NCCNC(=O)[C@H](Cc4ccccc4)NC(=O)[C@H](Cc4ccccc4)NC(=O)CCCCCCCNC(=O)CC[C@H](NC(=O)N[C@@H](CCC(=O)O)C(=O)O)C(=O)O)CC3)CC2)[C@H]1c1cccnc1` [compound 2], for which the EC50 in experiment [1] (setting [10]) was 5.01e-08 M; in experiment [3], 3.98e-09 M.
Turning to `CN1C(=O)C[C@H](C(=O)NCCNC(=O)[C@H](Cc2ccccc2)NC(=O)[C@H](Cc2ccccc2)NC(=O)CCCCCCCNC(=O)CC[C@H](NC(=O)N[C@@H](CCC(=O)O)C(=O)O)C(=O)O)[C@H]1c1cccnc1` [compound 3], the EC50 in experiment [1] (setting [10]) is 1e-07 M; in experiment [3] it was 1.26e-08 M.
The matching figures for `CN1C(=O)C[C@H](C(=O)NCCO[C@H]2CC[C@H](OCCCC(=O)N[C@H]3CC[C@H](C(=O)NCCNC(=O)CC[C@H](NC(=O)N[C@@H](CCC(=O)O)C(=O)O)C(=O)O)CC3)CC2)[C@H]1c1cccnc1` [compound 4]: 5.01e-08 M and 1e-08 M.
Consider `CN1C(=O)C[C@H](C(=O)NCCO[C@H]2CC[C@H](OCCCC(=O)N[C@H]3CC[C@H](C(=O)N4CCN(c5cccc([C@H](CC(=O)O)CN6CC[C@@H](CCc7ccc8c(n7)NCCC8)C6)c5)CC4)CC3)CC2)[C@H]1c1cccnc1` [compound 5], for which the EC50 in experiment [4] (setting [13]) was 5.01e-10 M; in experiment [4] (setting [14]), 6.31e-10 M; in experiment [5], 2.51e-10 M.
For `CN1C(=O)C[C@H](C(=O)NCCO[C@H]2CC[C@H](OCCCC(=O)N[C@H]3CC[C@H](C(=O)NCCNC(=O)CC[C@H](NC(=O)c4ccc(NCc5cnc6nc(N)[nH]c(=O)c6n5)cc4)C(=O)O)CC3)CC2)[C@H]1c1cccnc1` [compound 6], the EC50 in experiment [6] (setting [13]) was 2.51e-12 M; in experiment [6] (setting [14]) it was 1.58e-08 M; in experiment [7] (setting [11]), 1e-09 M. In addition, the “Cell Titler Glo pEC50 (CAR-T)” value in experiment [7] (anti-cotinine CAR-T) is reported as “Inactive”.
For the compound `CN(CCNC(=O)[C@H]1CC[C@H](NC(=O)CCCO[C@H]2CC[C@H](OCCNC(=O)[C@H]3CC[C@H](NC(=O)CCCO[C@H]4CC[C@H](OCCNC(=O)[C@H]5CC(=O)N(C)[C@@H]5c5cccnc5)CC4)CC3)CC2)CC1)c1ccc2nccc(C(=O)NCC(=O)N3CC(F)(F)C[C@H]3C#N)c2c1` [compound 7], the EC50 was 5.01e-11 M in experiment [8] (setting [13]), 1e-09 M in [8] (setting [14]), 5.01e-10 M in experiment [9] (setting [11]) and 2e-10 M in [9] (setting [12]).

Values taken from patent publication US20260325580A1, “CYTOTOXICITY TARGETING CHIMERAS FOR CAR-T AND CAR-NK CELLS” (GLAXOSMITHKLINE INTELLECTUAL PROPERTY DEVELOPMENT LIMITED, priority 2023, published 2026).
